Measurements reported in US8541460B2, “PDK-1/Akt signaling inhibitors” (The Ohio State University, priority 2003, dated 2013).

Columns and labels:
Assay type in all cases: cell-based
OVCAR-3 = experiment: NCI DTP cell line screen (SRB), Ovarian Cancer
Protocol: (§1) Screening of compounds 70 and 71 against several cancer cell lines The human tumor cell lines of the cancer screening panel are grown in RPMI 1640 medium containing 5% fetal bovine serum and 2 mM L-glutamine. For a typical screening experiment, cells are inoculated into 96 well microtiter plates in 100 μL at plating densities ranging from 5,000 to 40,000 cells/well depending on the doubling time of individual cell lines. After cell inoculation, the microtiter plates are incubated at 37° C., 5% CO2, 95% air and 100% relative humidity for 24 h prior to addition of experimental drugs.
(§2) After 24 h, two plates of each cell line are fixed in situ with TCA, to represent a measurement of the cell population for each cell line at the time of drug addition (Tz). Experimental drugs are solubilized in dimethyl sulfoxide at 400-fold the desired final maximum test concentration and stored frozen prior to use. At the time of drug addition, an aliquot of frozen concentrate is thawed and diluted to twice the desired final maximum test concentration with complete medium containing 50 μg/ml gentamicin. Additional four, 10-fold or ½ log serial dilutions are made to provide a total of five drug concentrations plus control. Aliquots of 100 μl of these different drug dilutions are added to the appropriate microtiter wells already containing 100 μl of medium, resulting in the required final drug concentrations.
(§3) Following drug addition, the plates are incubated for an additional 48 h at 37° C., 5% CO2, 95% air, and 100% relative humidity. For adherent cells, the assay is terminated by the addition of cold TCA. Cells are fixed in situ by the gentle addition of 50 μl of cold 50% (w/v) TCA (final concentration, 10% TCA) and incubated for 60 minutes at 4° C. The supernatant is discarded, and the plates are washed five times with tap water and air dried. Sulforhodamine B (SRB) solution (100 μl) at 0.4% (w/v) in 1% acetic acid is added to each well, and plates are incubated for 10 minutes at room temperature. After staining, unbound dye is removed by washing five times with 1% acetic acid and the plates are air dried. Bound stain is subsequently solubilized with 10 mM trizma base, and the absorbance is read on an automated plate reader at a wavelength of 515 nm. For suspension cells, the methodology is the same except that the assay is terminated by fixing settled cells at the bottom of the wells by gently adding 50 μl of 80% TCA (final concentration, 16% TCA). Using the seven absorbance measurements [time zero, (Tz), control growth, (C), and test growth in the presence of drug at the five concentration levels (Ti)], the percentage growth is calculated at each of the drug concentrations levels. Percentage growth inhibition is calculated as: [(Ti−Tz)/(C−Tz)]×100 for concentrations for which Ti>/=Tz [(Ti−Tz)/Tz]×100 for concentrations for which Ti<Tz
(§4) Three dose response parameters are calculated for each experimental agent. […] The drug concentration resulting in total growth inhibition (TGI) is calculated from Ti=Tz. […] Values are calculated for each of these three parameters if the level of activity is reached; however, if the effect is not reached or is exceeded, the value for that parameter is expressed as greater or less than the maximum or minimum concentration tested.
(§5) The methods described were used to test compounds 70 and 71 on a panel of sixty cell lines under a screening service provided by the Developmental Therapeutics Program at the National Institutes of Health. Shown in FIG. 1C are 1, RPMI-8226 leukemia cells; 2; NCI-H322M non-small cell lung cancer cells; 3, HT29 colon cancer cells; 4, U251 CNS cancer cells; 5, SK-MEL-28 melanoma cancer cells; 6, SK-OV-3 ovarian cancer cells; 7, RXF 393 renal cancer cells; 8, PC-3 prostate cancer cells; 9, MDA-MB-231 breast cancer cells.

OVCAR-4 = experiment: NCI DTP cell line screen (SRB), Ovarian Cancer
Protocol: as §1, §2, §3, §4, §5

OVCAR-8 = experiment: NCI DTP cell line screen (SRB), Ovarian Cancer; settings: OVCAR-8
Protocol: as §1, §2, §3, §4, §5

IGROV1 = experiment: NCI DTP cell line screen (SRB), Ovarian Cancer
Protocol: as §1, §2, §3, §4, §5

OVCAR-5 = experiment: NCI DTP cell line screen (SRB), Ovarian Cancer
Protocol: as §1, §2, §3, §4, §5

MOLT-4 = experiment: NCI DTP cell line screen (SRB), Leukemia
Protocol: as §1, §2, §3, §4, §5

SR = experiment: NCI DTP cell line screen (SRB), Leukemia
Protocol: as §1, §2, §3, §4, §5

K-562 = experiment: NCI DTP cell line screen (SRB), Leukemia
Protocol: as §1, §2, §3, §4, §5

NCC(=O)Nc1ccc(-n2nc(C(F)(F)F)cc2-c2ccc3c(ccc4ccccc43)c2)cc1 [Compound 70, 2-Amino-N-{4-[5-(2-phenanthrenyl)-3-(trifluoromethyl)-1H-pyrazol-1-yl]-phenyl}-acetamide]
TGI (OVCAR-3): 3.32E−06
Percent Growth (OVCAR-3; Log10 Concentration −4.0): −35%
Percent Growth (OVCAR-3; Log10 Concentration −5.0): −70%
Percent Growth (OVCAR-3; Log10 Concentration −6.0): 76%
Percent Growth (OVCAR-3; Log10 Concentration −7.0): 83%
Percent Growth (OVCAR-3; Log10 Concentration −8.0): 89%
TGI (OVCAR-4): 3.41E−06
Percent Growth (OVCAR-4; Log10 Concentration −4.0): −68%
Percent Growth (OVCAR-4; Log10 Concentration −5.0): −82%
Percent Growth (OVCAR-4; Log10 Concentration −6.0): 94%
Percent Growth (OVCAR-4; Log10 Concentration −7.0): 92%
Percent Growth (OVCAR-4; Log10 Concentration −8.0): 99%
TGI (OVCAR-8): 4.05E−06
Percent Growth (OVCAR-8; Log10 Concentration −4.0): −24%
Percent Growth (OVCAR-8; Log10 Concentration −5.0): −33%
Percent Growth (OVCAR-8; Log10 Concentration −6.0): 51%
Percent Growth (OVCAR-8; Log10 Concentration −7.0): 102%
Percent Growth (OVCAR-8; Log10 Concentration −8.0): 97%
TGI (IGROV1): 3.97E−06
Percent Growth (IGROV1; Log10 Concentration −4.0): −35%
Percent Growth (IGROV1; Log10 Concentration −5.0): −49%
Percent Growth (IGROV1; Log10 Concentration −6.0): 74%
Percent Growth (IGROV1; Log10 Concentration −7.0): 107%
Percent Growth (IGROV1; Log10 Concentration −8.0): 97%
TGI (OVCAR-5): 3.32E−06
Percent Growth (OVCAR-5; Log10 Concentration −4.0): −71%
Percent Growth (OVCAR-5; Log10 Concentration −5.0): −83%
Percent Growth (OVCAR-5; Log10 Concentration −6.0): 90%
Percent Growth (OVCAR-5; Log10 Concentration −7.0): 103%
Percent Growth (OVCAR-5; Log10 Concentration −8.0): 97%
TGI (MOLT-4): 3.10E−06
Percent Growth (MOLT-4; Log10 Concentration −4.0): −6%
Percent Growth (MOLT-4; Log10 Concentration −5.0): −42%
Percent Growth (MOLT-4; Log10 Concentration −6.0): 41%
Percent Growth (MOLT-4; Log10 Concentration −7.0): 87%
Percent Growth (MOLT-4; Log10 Concentration −8.0): 89%
TGI (SR): 4.17E−06
Percent Growth (SR; Log10 Concentration −5.0): −27%
Percent Growth (SR; Log10 Concentration −6.0): 45%
Percent Growth (SR; Log10 Concentration −7.0): 80%
Percent Growth (SR; Log10 Concentration −8.0): 84%
TGI (K-562): 3.34E−06
Percent Growth (K-562; Log10 Concentration −4.0): −17%
Percent Growth (K-562; Log10 Concentration −5.0): −30%
Percent Growth (K-562; Log10 Concentration −6.0): 33%
Percent Growth (K-562; Log10 Concentration −7.0): 62%
Percent Growth (K-562; Log10 Concentration −8.0): 97%
